Data taken from patent US20130109698A1, “Small Molecule Inhibitors of Functions of the HIV-1 Matrix Protein” (priority 2010, published 2013).

Legend:
HIV-1 89BZ167 Subtype B = assay: Anti-HIV efficacy in human PBMCs; format: cell-based; details: for IC50 / IC90: Human immunodeficiency virus 1, PBMC, PBMCs
Method: (§1) HIV human peripheral blood mononuclear cell (PBMC) assays were performed as described previously (Lanier et al., 2010, Antimicrob Agents Chemother 54:2901-2909 and Ptak et al., 2008, Antimicrob Agents Chemother 52:1302-1317). Briefly, fresh PBMCs, seronegative for HIV and hepatitis B virus (HBV), were isolated from blood samples of the screened donors (Biological Specialty Corporation, Colmar, Pa.) by using lymphocyte separation medium (LSM; density, 1.078±0.002 g/ml; Cellgro; Mediatech, Inc.) by following the manufacturer's instructions. Cells were stimulated by incubation in 4 μg/mL phytohemagglutinin (PHA; Sigma) for 48 to 72 h. Mitogenic stimulation was maintained by the addition of 20 U/mL recombinant human interleukin-2 (rhIL-2; R&D Systems, Inc.) to the culture medium. PHA-stimulated PBMCs from at least two donors were pooled, diluted in fresh medium, and added to 96-well plates at 5×10^4 cells/well. Cells were infected (final multiplicity of infection [MOI] of ≅0.1) in the presence of nine different concentrations of test compounds (triplicate wells/concentration) and incubated for 7 days. To determine the level of virus inhibition, cell-free supernatant samples were collected for analysis of reverse transcriptase activity (Buckheit et al., 1991, AIDS Res Hum Retroviruses 7:295-302). Following removal of supernatant samples, compound cytotoxicity was measured by the addition of 3-(4,5-dimethylthiazol-2-yl)-5-(3-carboxymethoxy-phenyl)-2-(4-sulfophenyl)-2H-tetrazolium (MTS; CellTiter 96 reagent; Promega) by following the manufacturer's instructions.

HIV-1 92BR025 Subtype C = assay: Anti-HIV efficacy in human PBMCs; format: cell-based; details: for IC50 / IC90: Human immunodeficiency virus 1, PBMC, PBMCs
Method: as §1

HIV-1 92UG024 Subtype D = assay: Anti-HIV efficacy in human PBMCs; format: cell-based; details: for IC50 / IC90: Human immunodeficiency virus 1, PBMC, PBMCs
Method: as §1

HIV-1 92UG031 Subtype A = assay: Anti-HIV efficacy in human PBMCs; format: cell-based; details: for IC50 / IC90: Human immunodeficiency virus 1, PBMC, PBMCs
Method: as §1

HIV-1 93BR020 Subtype F = assay: Anti-HIV efficacy in human PBMCs; format: cell-based; details: for IC50 / IC90: Human immunodeficiency virus 1, PBMC, PBMCs
Method: as §1

HIV-1 BCF02 Group O = assay: Anti-HIV efficacy in human PBMCs; format: cell-based; details: for IC50 / IC90: Human immunodeficiency virus 1, PBMC; for IC50 / IC90 / Antiviral index (TC50/IC50): BCF02 Group O
Method: as §1

HIV-1 CMU08 Subtype E = assay: Anti-HIV efficacy in human PBMCs; format: cell-based; details: for IC50 / IC90: Human immunodeficiency virus 1, PBMC, PBMCs
Method: as §1

HIV-1 G3 Subtype G = assay: Anti-HIV efficacy in human PBMCs; format: cell-based; details: for Antiviral index (TC50/IC50): G3 Subtype G; for IC50 / IC90: Human immunodeficiency virus 1, PBMC
Method: as §1

[1] = Compound cytotoxicity in PBMCs (MTS); format: cell-based, human; details: human; Table 4 study, PBMCs; read-out: TC50
Method: as §1

HIV-1 IIIB = assay: Infection of Sup-T1 cells by HIV-1 IIIB, p24 ELISA; details: 50 μM, three days
HIV-1 Ba-L = assay: Antiviral activity of additional compounds (Tables 6 and 7); format: cell-based
Method: as §1

HIV-1 NL4-3 = assay: as above; format: cell-based
Method: as §1

PBMCs = assay: Compound cytotoxicity in PBMCs (MTS); format: cell-based, human; details: Tables 6 and 7 study; read-out: TC50 (the source's name)
Method: as §1

[2] = Human immunodeficiency virus 1, BAL
[3] = Human immunodeficiency virus 1, NL43

Row | Compound | Antiviral index (TC50/IC50) (HIV-1 89BZ167 Subtype B) | IC50 (HIV-1 89BZ167 Subtype B) | IC90 (HIV-1 89BZ167 Subtype B) | Antiviral index (TC50/IC50) (HIV-1 92BR025 Subtype C) | IC50 (HIV-1 92BR025 Subtype C) | IC90 (HIV-1 92BR025 Subtype C) | Antiviral index (TC50/IC50) (HIV-1 92UG024 Subtype D) | IC50 (HIV-1 92UG024 Subtype D) | IC90 (HIV-1 92UG024 Subtype D) | Antiviral index (TC50/IC50) (HIV-1 92UG031 Subtype A) | IC50 (HIV-1 92UG031 Subtype A) | IC90 (HIV-1 92UG031 Subtype A) | Antiviral index (TC50/IC50) (HIV-1 93BR020 Subtype F) | IC50 (HIV-1 93BR020 Subtype F) | IC90 (HIV-1 93BR020 Subtype F) | IC50 (HIV-1 BCF02 Group O; PBMCs) | IC90 (HIV-1 BCF02 Group O; PBMCs) | Antiviral index (TC50/IC50) (HIV-1 CMU08 Subtype E) | IC50 (HIV-1 CMU08 Subtype E) | IC90 (HIV-1 CMU08 Subtype E) | also measured
1 | Cc1ccc(NC(=O)CN2CCN(Cc3nc(-c4ccc(F)cc4)no3)CC2)cc1 [CMPD-7, 2-(4-((3-(4-fluorophenyl)-1,2,4-oxadiazol-5-yl)methyl)piperazin-1-yl)-N-(p-tolyl)acetamide] | >6.97 | 14.4 µM | > 100 µM | >9.51 | 10.5 µM | > 100 µM | >11.3 | 8.88 µM | 35.2 µM | >6.72 | 14.9 µM | > 100 µM | >6.42 | 15.6 µM | > 100 µM | > 100 µM | > 100 µM | >10.4 | 9.64 µM | 99.7 µM | activity against the group O isolate HIV-1BCF02, in words (HIV-1 BCF02 Group O; over the concentrations tested, PBMCs): no activity; Antiviral index (TC50/IC50) (HIV-1 G3 Subtype G): >9.36; IC50 (HIV-1 G3 Subtype G): 10.7 µM; IC90 (HIV-1 G3 Subtype G): 30.2 µM; CC50 at 7 days [1]: > 100 µM
2 | CCOc1ccc(NC(=O)Cc2cn3ccsc3n2)cc1S(=O)(=O)N1CCCCC1 [CMPD-18, N-(4-ethoxy-3-(piperidin-1-ylsulfonyl)phenyl)-2-(imidazo[2,1-b]thiazol-6-yl)acetamide] | >2.94 | 21.3 µM | 71.8 µM | >2.79 | 22.4 µM | 75 µM | >6.02 | 10.4 µM | 25.9 µM | >3.98 | 15.8 µM | 64.7 µM | >3.39 | 18.5 µM | 54.1 µM | 27.2 µM | 75.6 µM | >5.00 | 15.9 µM | 95 µM | Antiviral index (TC50/IC50) (HIV-1 BCF02 Group O): >2.30; Antiviral index (TC50/IC50) (HIV-1 G3 Subtype G): >10.9; IC50 (HIV-1 G3 Subtype G): 5.73 µM; IC90 (HIV-1 G3 Subtype G): 21 µM; CC50 at 7 days [1]: 92.3 µM; HIV-1 replication (p24), in words (HIV-1 IIIB): inhibited
3 | O=C(CNC(=O)COc1ccccc1)NCc1ccc(C(=O)N2CCCCC2)cc1 [CMPD-14, N-(2-oxo-2-((4-(piperidine-1-carbonyl)benzyl)amino)ethyl)-2-phenoxyacetamide] | >4.66 | 21.4 µM | 40.7 µM | >4.24 | 23.6 µM | 96.6 µM | >5.41 | 18.5 µM | 29.5 µM | >5.40 | 18.5 µM | 42.2 µM | >4.93 | 20.3 µM | 32.6 µM | 21.9 µM | 45 µM | >6.27 | 16 µM | 59.5 µM | Antiviral index (TC50/IC50) (HIV-1 BCF02 Group O): >4.57; Antiviral index (TC50/IC50) (HIV-1 G3 Subtype G): >4.88; IC50 (HIV-1 G3 Subtype G): 20.5 µM; IC90 (HIV-1 G3 Subtype G): 29.2 µM; Antiviral index (TC50/IC50) (HIV-1 Ba-L): > 3.13; IC50 (HIV-1 Ba-L; [2]): 32 µM; IC90 (HIV-1 Ba-L; [2]): > 100 µM; Antiviral index (TC50/IC50) (HIV-1 NL4-3): > 2.53; IC50 (HIV-1 NL4-3; [3]): 39.6 µM; IC90 (HIV-1 NL4-3; [3]): > 100 µM; CC50 at 7 days [1]: > 100 µM; CC50 (PBMCs): > 100 µM
